Measured values as given in the supplement of paper PMC10307832.

What was measured:
Assay in all cases: relative viability (nuclei count vs DMSO), 5 days (fraction); higher = more cells survive
[1] = compound: C1=CC=C2C(=C1)N=C(S2)C(C#N)C3=NC(=NC=C3)NCCC4=CN=CC=C4 + O=C(c1cc(Cc2n[nH]c(=O)c3ccccc23)ccc1F)N1CCN(C(=O)C2CC2)CC1 [Olaparib] (partner 8 µM)
Method in brief: (§1)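 One day after seeding in 1536-well plates, lung cancer cell lines were dosed by pin tool. Dosing was either single-drug or a fixed anchor-drug dose plus five library-drug doses (not always all listed) in √10 steps. After 5 days, nuclei were stained in one fix-and-stain step and counted on 4× images, and relative viability is the nuclei count of treated wells over that of vehicle wells, given as the median of duplicate plates.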

Vandetanib + OSI-027 = compound: COc1cc2/c(=N/c3ccc(Br)cc3F)nc[nH]c2cc1OCC1CCN(C)CC1 [Vandetanib] + COc1cccc2cc(-c3nc([C@H]4CC[C@H](C(=O)O)CC4)n4ncnc(N)c34)[nH]c12 [OSI-027] (partner 0.5 µM)
Method in brief: as §1

[2] = compound: C1=CC=C2C(=C1)N=C(S2)C(C#N)C3=NC(=NC=C3)NCCC4=CN=CC=C4 + Nc1ncn([C@H]2C[C@H](O)[C@@H](CO)O2)c(=O)n1 [Decitabine] (partner 2 µM)
Method in brief: as §1

NVP-TAE684 + Alpelisib = compound: COc1cc(N2CCC(N3CCN(C)CC3)CC2)ccc1Nc1ncc(Cl)c(Nc2ccccc2S(=O)(=O)C(C)C)n1 [NVP-TAE684] + Cc1nc(NC(=O)N2CCC[C@H]2C(N)=O)sc1-c1ccnc(C(C)(C)C(F)(F)F)c1 [Alpelisib] (partner 2 µM)
Method in brief: as §1

| Cell Line | relative viability ([1]; first compound 0.005 µM) | relative viability ([1]; first compound 0.01581 µM) | relative viability ([1]; first compound 0.05 µM) | relative viability ([1]; first compound 0.1581 µM) | relative viability ([1]; first compound 0.5 µM) | relative viability (Vandetanib + OSI-027; first compound 0.02 µM) | relative viability (Vandetanib + OSI-027; first compound 0.06325 µM) | relative viability (Vandetanib + OSI-027; first compound 0.2 µM) | relative viability (Vandetanib + OSI-027; first compound 0.6325 µM) | relative viability (Vandetanib + OSI-027; first compound 2 µM) | relative viability ([2]; first compound 0.005 µM) | relative viability ([2]; first compound 0.01581 µM) | relative viability ([2]; first compound 0.05 µM) | relative viability ([2]; first compound 0.1581 µM) | relative viability ([2]; first compound 0.5 µM) | relative viability (NVP-TAE684 + Alpelisib; first compound 0.2 µM) | relative viability (NVP-TAE684 + Alpelisib; first compound 0.6325 µM) | relative viability (NVP-TAE684 + Alpelisib; first compound 2 µM) |
| --- | --- | --- | --- | --- | --- | --- | --- | --- | --- | --- | --- | --- | --- | --- | --- | --- | --- | --- |
| HCC-827 | 0.568 | 0.616 | 0.728 | 0.657 | 0.566 | 0.895 | 0.752 | 0.707 | 0.164 | 0.149 | 0.318 | 0.322 | 0.319 | 0.399 | 0.328 | 1.05 | 1.05 | 0.822 |
| HOP-62 | 0.741 | 0.368 | 0.408 | 0.265 | 0.191 | 0.789 | 0.739 | 0.815 | 0.903 | 0.846 | 0.219 | 0.184 | 0.263 | 0.234 | 0.248 | 1.16 | 0.891 | 0.946 |
| IA-LM |  | 0.883 | 0.804 | 0.836 | 0.763 |  |  |  |  |  |  |  |  |  |  | 0.588 | 0.55 | 0.431 |
| LC-2-ad | 0.699 | 0.701 | 0.762 | 0.729 | 0.673 | 0.848 | 0.761 | 0.777 | 0.675 | 0.446 | 0.698 | 0.819 | 0.818 | 0.827 | 0.726 | 0.813 | 0.801 | 0.232 |
| LCLC-97TM1 | 0.289 | 0.362 | 0.354 | 0.592 | 0.362 | 0.669 | 0.324 | 0.514 | 0.394 | 0.481 | 0.192 | 0.215 | 0.293 | 0.237 | 0.222 | 0.194 | 0.233 | 0.127 |
| LCLC-103H | 0.628 | 0.829 | 0.764 | 0.849 | 0.649 | 0.428 | 0.44 | 0.438 | 0.423 | 0.448 | 0.723 | 0.731 | 0.69 | 0.762 | 0.751 | 0.99 | 0.986 | 0.995 |
| LK-2 | 0.645 | 0.804 | 0.63 | 0.754 | 0.766 | 0.243 | 0.213 | 0.203 | 0.197 | 0.227 | 0.27 | 0.288 | 0.39 | 0.352 | 0.352 | 0.846 | 1.07 | 0.574 |
| LOU-NH91 | 0.914 | 0.914 | 0.826 | 0.888 | 0.801 | 0.76 | 0.604 | 0.599 | 0.502 | 0.515 | 0.85 | 0.822 | 0.765 | 0.818 | 0.8 | 0.68 | 0.623 | 0.532 |
| LU99A | 0.247 | 0.272 |  | 0.265 | 0.232 | 0.267 | 0.314 | 0.267 | 0.264 | 0.317 | 0.693 | 0.966 |  | 1 | 0.817 | 0.594 | 0.524 | 0.328 |
| LXF-289 | 0.966 | 1.13 | 1.1 | 1.17 | 0.979 | 0.774 | 0.708 | 0.877 | 0.771 | 0.741 | 0.345 | 0.419 | 0.4 | 0.405 | 0.336 | 1.08 | 1.04 |  |
| NCI-H23 |  | 0.33 | 0.276 | 0.303 | 0.282 | 0.513 | 0.559 | 0.573 | 0.613 | 0.746 |  | 0.306 | 0.329 | 0.323 | 0.338 | 0.856 | 0.62 | 0.484 |
| NCI-H322M | 0.755 | 0.746 | 0.779 | 0.78 | 0.677 | 0.573 | 0.551 | 0.608 | 0.49 | 0.422 | 0.579 | 0.773 | 0.775 | 0.711 | 0.736 | 0.638 | 0.771 | 0.818 |
| NCI-H522 | 0.66 | 0.638 | 0.634 | 0.533 | 0.751 | 0.77 | 0.727 | 0.772 | 0.674 | 0.61 | 0.718 | 0.651 | 0.607 | 0.639 | 0.66 |  |  |  |
| NCI-H1299 | 0.966 | 1.05 | 1.01 | 1.05 | 0.894 |  |  |  |  |  |  |  |  |  |  | 0.974 | 1.1 | 0.992 |
| NCI-H1563 |  |  |  |  |  | 0.79 | 0.8 | 0.743 | 0.76 | 0.734 |  |  |  |  |  | 0.802 | 0.828 | 0.903 |
| NCI-H1623 |  |  |  |  |  | 0.479 | 0.439 | 0.454 | 0.398 | 0.455 |  |  |  |  |  |  |  |  |
| NCI-H1648 |  | 1.02 |  | 0.977 | 1.09 | 0.253 | 0.276 | 0.28 | 0.258 | 0.252 |  | 0.438 |  | 0.535 | 0.388 |  |  |  |
| NCI-H1650 | 0.718 | 0.719 | 0.708 | 0.882 | 0.507 | 0.621 | 0.436 | 0.552 | 0.452 | 0.439 | 0.335 | 0.333 | 0.496 | 0.432 | 0.407 |  |  |  |
| NCI-H1703 | 0.357 | 0.353 |  | 0.377 | 0.66 |  |  |  |  |  |  |  |  |  |  | 0.401 | 0.334 | 0.21 |
| NCI-H2228 | 0.481 | 0.738 | 0.489 | 0.729 | 0.527 | 0.651 | 0.42 | 0.744 | 0.422 | 0.631 |  |  |  |  |  | 0.381 | 0.255 | 0.153 |
| NCI-H2342 | 0.536 | 0.454 | 0.495 | 0.442 | 0.45 | 0.616 | 0.597 | 0.644 | 0.669 | 0.591 | 0.727 | 0.844 | 0.694 | 0.837 | 0.71 |  |  |  |
| SW 900 | 0.65 | 0.755 | 0.838 | 0.938 | 0.87 | 0.456 | 0.486 | 0.315 | 0.622 | 0.713 | 0.393 | 0.342 | 0.401 | 0.557 | 0.391 |  |  |  |
